In patent publication US20200345733A1, “Microbicidal Pyrimidine or Triazine Containing Compounds” (Janssen Sciences Ireland UC, priority 2002, published 2020):
pEC50, pKi: −log10 of the molar value.

Experiments:
[1] = test system: HIV-1 RF; experiment: Direct antiviral activity, immobilised virus with Jurkat-tat indicator cells; format: cell-based
[2] = target: HIV-1 reverse transcriptase (HIV-1 RT) (Human immunodeficiency virus type 1 group M subtype B, UniProt P04585); experiment: Steady state kinetics of RNA-dependent DNA polymerization by HIV-1 RT; format: biochemical
Method: In a first experiment, the reaction velocity was determined in the presence of different concentrations of compound B and different concentrations of dGTP while the concentration of the p(rC)p(dG) complex was constant.
In a second experimental the reaction velocity was determined in the presence of different concentrations of compound B and different concentrations of p(rC)p(dG) while the concentration of the substrate was constant.

[3] = test system: HTLV-IIIb infected CEM T cells; experiment: Antiviral activity in HTLV-IIIB infected CEM T cells (syncytium formation); format: cell-based, HIV; settings: Human immunodeficiency virus 1, T-cell, continuous treatment, 50% inhibition of syncytium formation in CEM T cells
Method: For experiments with CEM T cells, we used the lymphotropic SI/X4 HIV strain HTLV-IIIB, originally obtained from R. C. Gallo and M. Popovic (NIH, Bethesda, Md.). For experiments with monocyte-derived dendritic cells (MO-DC), the monotropic NSI/R5 HIV strain Ba-L, kindly provided by the NIH AIDS Research and Reference Reagent Program (Rockville, Md) was used. Ba-L stocks were grown and tittered on PHA/IL-2-stimulated peripheral blood mononuclear cells (PBMC) in complete medium, containing RPMI-1640 (Bio-Whittaker, Verviers, Belgium) and 10% bovine calf serum (Hyclone, Utah, US) (Peden K. Virological and Molecular Genetic Techniques for Studies of Established HIV Isolates. 1995, 21-45). The supernatant of these cultures were directly used as cell-free virus to infect MO-DC. To prepare cell-associated HIV Ba-L, non-stimulated PBMC (2×10^6 cells/ml) were incubated overnight with 10^−2 MOI (=multiplicity of infection) of HIV Ba-L in complete medium. Afterwards, cells were extensively washed, frozen in liquid nitrogen and thawed on the day of infection.
As a reference system, CEM T cells (obtained from the American Type culture Collection in Rockville, Md.) were used under previously standardized conditions (Balzarini J, et al. AIDS Res Hum Retroviruses 10 Apr. 2000, 16: 517-528). […]

Cc1cc(C)c(Nc2ccnc(Nc3ccc(C#N)cc3)n2)c(C)c1 [compound B, 4-[[4-[(2,4,6-trimethylphenyl)amino]-2-pyrimidinyl]amino]benzonitrile]
Concentration providing protection of infection ([1]; virus pretreated prior to addition of cells, without removal of the compound): 10 nM | Concentration providing protection of infection ([1]; virus treated 1 hour at 37° C., compound removed by washing, co-culture 8 days): 100 nM | Nature of binding to HIV-1 RT ([2]; against dGTP): non-competitive | pKi ([2]; against dGTP, p(rC)p(dG) constant): 7.48 | Nature of binding to HIV-1 RT ([2]; against p(rC)p(dG)): non-competitive | pKi ([2]; against p(rC)p(dG), substrate constant): 7.55 | Km ([2]; dGTP varied, p(rC)p(dG) constant (Km of the substrate)): 2.51 µM | Km ([2]; p(rC)p(dG) varied, substrate constant (Km of primer/template)): 10.3 µM | pEC50 [3]: 9.00
